The subject of one data set is EGFR. The data set is described as follows: EGFR phosphorylation in cells (immunoblotting). The data set is classed as cell-based. Conditions: HEK293 cells, 10 μM, 15 min. On the procedure: (§1) (A) DDN and CSN activate IR and its downstream signaling in CHO-IR cells. […] The cell lysates were analyzed by immunoblotting with anti-phospho-IR antibodies, or immunoprecipitated by PY20 and analyzed using anti-IR and anti-IRS-1, respectively. (B) DDN and CSN induce IR phosphorylation in a dose-dependent manner. CHO-IR cells were treated with the small compounds at different concentrations for 15 min, and the IR phosphorylation was monitored by immunoprecipitation and immunoblotting. (C) DDN, CSN induce IR phosphorylation in a time-dependent manner. […] (D) DDN and CSN induce IR phosphorylation and its downstream signaling in a dose-dependent manner. […] (E) DDN and CSN cannot induce IGF-1R or EGFR phosphorylation. CHO-IGF-1R or HEK293 cells were treated with EGF (100 nM), IGF-1 (100 nM), DDN (10 μM) or CSN (10 μM) for 15 min. The cell lysates were analyzed by immunoblotting with anti-pIGF-1R and anti-pEGFR.
(§2) (A) Chemical structure of 4524-E7. (B) Effect of 4524-E7 and other 1,4-naphthoquinone derivatives on IR phosphorylation in CHO-IR cells. CHO-IR cells were cultured in 96-well plates and treated with 5 μM compounds for 15 min at 37 C. Cells were lysed, and IR phosphorylations were tested by ELISA. The IR phosphorylation activities of the tested compounds were expressed as a percentage of the vehicle. (C) 4524-E7 and 1,4-naphthoquinone derivates activate IR and its downstream signaling in CHO-IR cells. […] The cell lysates were analyzed by immunoblotting with various indicated antibodies. The phosphorylated IR was immunoprecipitated using PY20 and analyzed by immunoblotting with anti-IR13 antibody. […] The phosphorylation of each receptor was determined by Western blot using specific antibodies as indicated. (E) 4524-E7 activates IR through its ICD. Upper panel: Diagram of chimaeric receptors. Lower panel: His-tagged wild-type IR, IGFR-IR, IR-IGFR, and IR-EGFR constructs were transfected into CHO cells followed vehicle or 5 μM 4524-E7 treatment for 30 min. Then the cells were lysated and the transfected receptor fused to His tag were pulled down with Ni+ beads, followed by western blot against anti-p-Tyr and anti-His. The cell lysates were tested with anti-p-Akt and anti-Akt.
(§3) A cell-based ELISA assay was developed with an IR stably transfected Chinese Hamster Ovary (CHO-IR) cell line. The cells were seeded in a 96-well plate and treated with 10 μM (15 min) compounds. The cell lysates were subjected to the sandwich ELISA using immobilized anti-phosphotyrosine antibody and anti-IR antibody. […] Among the positive hits, 1,4-naphthoquinone compounds were identified that can selectively activate IR but not IGF-1R (FIG. 1A). […] Total IR tyrosine phosphorylation was further confirmed by immunoprecipitation using anti-phosphotyrosine (PY20) antibody (FIG. 2A, 3rd panel). […]

Another data set relates to IGF-1R. The data set is described as follows: IGF-1R phosphorylation in cells (immunoblotting). In kind it is cell-based. The settings on record: CHO-IGF-1R cells, 10 μM, 15 min. On the procedure: as §1, §2, §3
A further data set has as its system C57BL/6J mice. The data set is described as follows: Lethality after administration to C57BL/6J mice. Conditions: intraperitoneal, even at low doses (1 mg/kg). The data set is classed as in vivo, mouse. On the procedure:
However, CSN was lethal to the mice even at low doses (1 mg/kg) (data not shown). […] The kinetics of DDN in lowering blood glucose is different from that of insulin.

The next data set has as its target IR (Homo sapiens, UniProt P06213). The data set is described as follows: Immunoblotting of IR phosphorylation and downstream signaling in CHO-IR cells. The arrangement: expressed in transfected cells; host or cells: CHO (CHO-IR, gift from Dr. Nicholas Webster, UCSD). The data set is classed as cell-based. On the procedure: The cell lysates were analyzed by immunoblotting with anti-phospho-IR antibodies, or immunoprecipitated by PY20 and analyzed using anti-IR and anti-IRS-1, respectively. […] The cell lysates were analyzed by immunoblotting with anti-pIGF-1R and anti-pEGFR. […]
A cell-based ELISA assay was developed with an IR stably transfected Chinese Hamster Ovary (CHO-IR) cell line. […] The cell lysates were subjected to the sandwich ELISA using immobilized anti-phosphotyrosine antibody and anti-IR antibody.

Sequence of IR (P06213 763-1382 limits assumed): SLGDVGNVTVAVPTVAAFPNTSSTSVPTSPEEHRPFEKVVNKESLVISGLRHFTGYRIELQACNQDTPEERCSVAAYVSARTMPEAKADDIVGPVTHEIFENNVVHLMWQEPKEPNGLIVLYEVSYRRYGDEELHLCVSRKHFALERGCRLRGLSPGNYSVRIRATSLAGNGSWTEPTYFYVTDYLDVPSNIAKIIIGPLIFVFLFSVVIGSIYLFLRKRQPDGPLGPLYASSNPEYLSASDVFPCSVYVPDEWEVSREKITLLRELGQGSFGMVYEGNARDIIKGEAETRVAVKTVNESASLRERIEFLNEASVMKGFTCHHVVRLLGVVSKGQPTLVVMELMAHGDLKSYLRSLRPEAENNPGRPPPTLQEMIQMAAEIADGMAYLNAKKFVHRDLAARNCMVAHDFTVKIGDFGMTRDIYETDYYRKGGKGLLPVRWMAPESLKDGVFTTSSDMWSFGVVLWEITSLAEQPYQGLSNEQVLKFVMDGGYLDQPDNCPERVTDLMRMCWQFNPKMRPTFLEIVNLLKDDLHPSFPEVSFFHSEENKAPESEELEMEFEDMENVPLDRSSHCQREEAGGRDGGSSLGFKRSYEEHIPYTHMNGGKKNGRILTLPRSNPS
Sequence of IR (P06213 28-758 limits assumed): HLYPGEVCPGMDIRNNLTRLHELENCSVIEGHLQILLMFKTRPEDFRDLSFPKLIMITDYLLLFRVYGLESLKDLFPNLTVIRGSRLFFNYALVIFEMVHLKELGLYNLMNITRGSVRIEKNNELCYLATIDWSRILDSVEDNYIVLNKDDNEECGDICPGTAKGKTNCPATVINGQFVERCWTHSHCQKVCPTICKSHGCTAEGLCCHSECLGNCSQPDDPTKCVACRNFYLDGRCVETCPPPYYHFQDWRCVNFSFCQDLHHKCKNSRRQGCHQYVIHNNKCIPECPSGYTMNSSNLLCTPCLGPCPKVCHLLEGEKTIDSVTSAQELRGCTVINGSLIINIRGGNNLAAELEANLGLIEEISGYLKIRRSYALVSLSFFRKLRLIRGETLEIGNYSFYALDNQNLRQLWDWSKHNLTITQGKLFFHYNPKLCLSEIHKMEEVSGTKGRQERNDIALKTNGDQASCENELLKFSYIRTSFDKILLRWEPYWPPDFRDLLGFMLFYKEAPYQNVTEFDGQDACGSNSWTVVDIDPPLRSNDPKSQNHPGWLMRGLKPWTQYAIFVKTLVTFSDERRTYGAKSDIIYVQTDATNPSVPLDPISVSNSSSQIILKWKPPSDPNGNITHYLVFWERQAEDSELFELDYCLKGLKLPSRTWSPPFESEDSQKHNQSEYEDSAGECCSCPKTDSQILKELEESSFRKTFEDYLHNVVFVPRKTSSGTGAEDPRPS

As to `CSC1=C(SC)C(=O)c2ccccc2C1=O` [CSN, 2,3-Bis-methylsulfanyl-1,4-naphthoquinone], in the data set on EGFR, the EGFR activation entry is “Neither IGF-1R nor EGFR was activated”. The IGF-1R activation entry in the data set with IGF-1R is “Neither IGF-1R nor EGFR was activated”. In addition, the lethality entry with C57BL/6J mice is reported as “lethal to the animals”. For the same compound, at IR (5 μM), the “time at which IR activation peaked” value came to 60 min and the “time at which IR phosphorylation starts” value was 5 to 15 min. Moreover, on IR (5 μM, 15 min), the “tyrosine phosphorylation of IRS-1” value was “also increased”; the “tyrosine phosphorylation of the IR β subunit in Y1146 and Y1158/1162/1163” value is reported as “strongly stimulated”. Also, the “concentration stimulating the IR signal cascades” value on IR (DDN or CSN 30 min, insulin 15 min) was determined as 5 µM.

The record behind these values is patent US9040713B2, “Methods of managing blood sugar levels and compositions related thereto” (EMORY UNIVERSITY, priority 2010, dated 2015).
